Measurements taken from patent US20230339854A1, “Negative Allosteric Modulation of GluN3-Containing N-Methyl-D-Aspartate Receptors” (Emory University, priority 2020, published 2023).
Where “and” joins values, the source holds several entries; their conditions need not be identical. Identical values can stand only once. Entries after “also recorded” stand apart in the source; their conditions may differ. Like-named read-outs stand apart in the source and are kept apart here.

How the values were obtained:
[1] = biological target: T1, rat GluN1-4a^FA,TL/GluN3B receptors (Rattus norvegicus, UniProt Q8VHN2); test: Two-electrode voltage-clamp recordings of GluN1-4a^FA,TL/GluN3B receptors (Xenopus oocytes); assay type: cell-based
T1 construct: Human GluN3A (NP_597702.2) and rat GluN3B (NP_579842.2) were synthesized and subcloned into SP6 plasmids; expressed in transfected cells; host or cells: Xenopus laevis oocytes, cRNA injection
Text: cDNA encoding human wild-type (WT) GluN1-1a (GenBank accession numbers NP_015566, hereafter GluN1) and rat GluN1-1a (NP_058706.1) were synthesized and subcloned into pGEMHE plasmid; some experiments used the rat splice variant GluN1-4a (NP_001257531.1). Human GluN3A (NP_597702.2) and rat GluN3B (NP_579842.2) were synthesized and subcloned into SP6 plasmids. For most experiments, human GluN1 was co-expressed with human GluN3A, except for mutagenesis experiments where rat GluN1 was co-expressed with human GluN3A. Rat GluN1-4a was always expressed with rat GluN3B.
Defolliculated Xenopus laevis oocytes (stage V-VI) were obtained from Ecocyte BioScience (Austin, Texas), or prepared from commercially available Xenopus ovaries (Xenopus 1, Dexter, MI) as previously described (Hansen, et al., Mol. Pharmacol., 2013). A Drummond Nanoject II (Broomall, PA) was used to inject oocytes with cRNAs encoding GluN1 and GluN3 at a 1:3 ratio in RNase-free water. The cRNA was diluted as needed to give responses with amplitudes ranging between 200-2000 nA (0.2-10 ng total cRNA). […] Recording electrodes were filled with 0.3-3.0 M KCl, and current responses were recorded at a holding potential of −40 mV. […]

[2] = In vivo pharmacokinetics and brain penetration in mice; set-up: species or system mouse
Protocol: EU1180-438 was dosed at 20 mg/kg intraperitoneal in seven freely-fed male C57BL/6 mice. EU1180-438 was formulated in 5% DMA, 10% PEG, 30% HPBCD, qs to volume w/water.
Plasma was sampled at seven points: pre-dose, 0.25, 0.5, 1, 2, 4, and 8 hours (n=3 per time point, 21 plasma samples per treatment group). […] Samples were analyzed via LC-MS/MS to quantify the amount of parent compound present in each sample.
EU1180-438 was tested in male C57BL/6 mice for brain penetrability. After a single intraperitoneal dose of 20 mg/kg the concentration of EU1180-438 in the plasma was measured. […] The concentration of EU1180-438 in the brain was also measured to determine if the compound can pass the blood-brain barrier. The compound was detected in the brain tissue up to 8 hours after dosage administration.

[3] = tested on: GluA1-4 AMPA receptors; test: AMPA receptors in Xenopus oocytes (selectivity); assay type: cell-based, rat, human; conditions: 20 μM
[4] = biological target: native GluN1/GluN3A receptors (Mus musculus, UniProt A2AIR5); test: Whole-cell patch-clamp of glycine-activated responses in hippocampal CA1 pyramidal cells, acute brain slices; assay type: cell-based; conditions: 30 μM; 1 μM CGP-78608; 10 mM glycine puffs
[5] = mice, 20 mg/kg intraperitoneal, 0.25 hour, 20 mg/kg
[6] = mice, 20 mg/kg intraperitoneal, 1 hour, 20 mg/kg
[7] = mice, 20 mg/kg intraperitoneal, 8 hour, 20 mg/kg

Sequence of native GluN1/GluN3A receptors (A2AIR5 27-1135, other chains not shown): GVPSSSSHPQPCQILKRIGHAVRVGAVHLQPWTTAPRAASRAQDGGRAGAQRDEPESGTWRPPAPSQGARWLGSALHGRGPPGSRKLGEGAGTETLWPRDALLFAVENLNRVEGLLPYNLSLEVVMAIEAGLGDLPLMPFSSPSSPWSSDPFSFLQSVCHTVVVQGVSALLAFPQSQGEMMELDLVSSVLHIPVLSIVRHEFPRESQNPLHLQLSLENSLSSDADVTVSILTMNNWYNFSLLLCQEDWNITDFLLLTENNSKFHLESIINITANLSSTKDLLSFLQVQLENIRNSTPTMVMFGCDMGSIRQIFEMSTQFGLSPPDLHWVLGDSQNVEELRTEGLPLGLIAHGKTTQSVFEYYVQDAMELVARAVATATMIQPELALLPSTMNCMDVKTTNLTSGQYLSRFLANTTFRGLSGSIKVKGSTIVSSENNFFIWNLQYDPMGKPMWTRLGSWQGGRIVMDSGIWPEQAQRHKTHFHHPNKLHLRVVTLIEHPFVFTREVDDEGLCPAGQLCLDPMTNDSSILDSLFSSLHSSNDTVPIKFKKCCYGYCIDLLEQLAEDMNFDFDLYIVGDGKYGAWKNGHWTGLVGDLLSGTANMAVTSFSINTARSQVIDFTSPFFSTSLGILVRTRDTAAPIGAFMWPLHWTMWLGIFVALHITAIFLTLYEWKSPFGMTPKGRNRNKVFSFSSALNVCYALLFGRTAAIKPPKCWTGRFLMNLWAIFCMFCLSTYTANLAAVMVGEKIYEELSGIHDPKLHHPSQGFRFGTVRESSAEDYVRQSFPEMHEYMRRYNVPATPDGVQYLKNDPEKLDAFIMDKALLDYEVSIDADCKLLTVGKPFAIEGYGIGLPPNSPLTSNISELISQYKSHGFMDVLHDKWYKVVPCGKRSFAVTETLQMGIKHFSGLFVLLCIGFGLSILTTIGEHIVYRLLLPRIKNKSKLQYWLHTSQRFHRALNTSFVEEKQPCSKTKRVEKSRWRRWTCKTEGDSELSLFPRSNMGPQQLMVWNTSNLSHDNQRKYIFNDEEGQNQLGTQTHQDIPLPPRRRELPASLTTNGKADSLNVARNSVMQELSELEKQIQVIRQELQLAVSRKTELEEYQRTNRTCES
T1 sequence (Q8VHN2 25-1002, other chains not shown): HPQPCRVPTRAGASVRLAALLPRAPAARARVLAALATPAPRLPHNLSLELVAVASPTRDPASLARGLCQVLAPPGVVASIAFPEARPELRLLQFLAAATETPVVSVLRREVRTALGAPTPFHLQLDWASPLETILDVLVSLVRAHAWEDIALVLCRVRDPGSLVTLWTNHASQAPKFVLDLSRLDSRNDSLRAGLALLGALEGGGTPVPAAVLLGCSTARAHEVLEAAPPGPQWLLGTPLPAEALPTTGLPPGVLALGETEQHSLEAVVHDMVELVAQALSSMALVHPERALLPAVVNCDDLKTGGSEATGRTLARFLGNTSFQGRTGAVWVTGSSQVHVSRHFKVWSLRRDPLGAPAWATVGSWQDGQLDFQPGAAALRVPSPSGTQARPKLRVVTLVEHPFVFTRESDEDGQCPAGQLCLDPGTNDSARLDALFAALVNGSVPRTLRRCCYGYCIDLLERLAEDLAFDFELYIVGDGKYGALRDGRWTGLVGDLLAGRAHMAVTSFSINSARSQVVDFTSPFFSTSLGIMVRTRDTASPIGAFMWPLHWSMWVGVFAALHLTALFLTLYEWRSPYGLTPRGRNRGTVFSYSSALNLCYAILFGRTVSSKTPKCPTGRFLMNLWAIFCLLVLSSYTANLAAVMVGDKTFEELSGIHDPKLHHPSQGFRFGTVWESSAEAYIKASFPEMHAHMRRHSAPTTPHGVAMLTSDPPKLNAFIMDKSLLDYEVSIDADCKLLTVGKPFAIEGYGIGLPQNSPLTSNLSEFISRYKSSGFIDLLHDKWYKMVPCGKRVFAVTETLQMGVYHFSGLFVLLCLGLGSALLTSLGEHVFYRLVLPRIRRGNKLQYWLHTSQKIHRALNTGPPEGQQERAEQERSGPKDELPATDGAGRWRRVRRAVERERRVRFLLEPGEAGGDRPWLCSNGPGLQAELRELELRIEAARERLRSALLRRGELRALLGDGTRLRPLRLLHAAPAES

- IC50 [1]: 5.2 µM
- inhibition at saturating concentrations [1]: 82%
- time after dosage up to which compound was detected in brain tissue ([2]; male C57BL/6 mice, 20 mg/kg intraperitoneal): up to 8 hours
- max concentration in plasma ([2]; male C57BL/6 mice, single intraperitoneal dose of 20 mg/kg): 2.75 µM
- concentration at 0.25 h ([2]; male, C57BL/6, mouse, brain, ip, 20 mg/kg, mice, 20 mg/kg intraperitoneal, 0.25 hour, read-out: Brain Concentration): 3680 nM
- Kp at 0.25 h ([2]; male, C57BL/6, mouse, brain, ip, 20 mg/kg, mice, 20 mg/kg intraperitoneal, 0.25 hour, read-out: Brain to Plasma Ratio): 1.6
- Kp at 0.25 h ([2]; male, C57BL/6, mouse, brain, ip, 20 mg/kg, mice, 20 mg/kg intraperitoneal, 0.25 hour, read-out: Mean Ratio (brain to plasma)): 1.74
- concentration at 1 h ([2]; male, C57BL/6, mouse, brain, ip, 20 mg/kg, mice, 20 mg/kg intraperitoneal, 1 hour, read-out: Brain Concentration): 1960 nM
- Kp at 1 h ([2]; male, C57BL/6, mouse, brain, ip, 20 mg/kg, mice, 20 mg/kg intraperitoneal, 1 hour, read-out: Brain to Plasma Ratio): 1.57
- Kp at 1 h ([2]; male, C57BL/6, mouse, brain, ip, 20 mg/kg, mice, 20 mg/kg intraperitoneal, 1 hour, read-out: Mean Ratio (brain to plasma)): 1.79
- concentration at 2 h ([2]; male, C57BL/6, mouse, brain, ip, 20 mg/kg, mice, 20 mg/kg intraperitoneal, 2 hour, read-out: Brain Concentration): 1050 nM
- Kp at 2 h ([2]; male, C57BL/6, mouse, brain, ip, 20 mg/kg, mice, 20 mg/kg intraperitoneal, 2 hour, read-out: Mean Ratio (brain to plasma)): 0.88
- concentration at 8 h ([2]; male, C57BL/6, mouse, brain, ip, 20 mg/kg, mice, 20 mg/kg intraperitoneal, 8 hour, read-out: Brain Concentration): 60 nM
- Kp at 8 h ([2]; male, C57BL/6, mouse, brain, ip, 20 mg/kg, mice, 20 mg/kg intraperitoneal, 8 hour, read-out: Brain to Plasma Ratio): 1.37
- Kp at 8 h ([2]; male, C57BL/6, mouse, brain, ip, 20 mg/kg, mice, 20 mg/kg intraperitoneal, 8 hour, read-out: Mean Ratio (brain to plasma)): 1.02
- concentration at 0.25 h ([2]; male, C57BL/6, mouse, plasma, ip, 20 mg/kg, mice, 20 mg/kg intraperitoneal, 0.25 hour, read-out: Plasma Concentration): 2300 nM
- concentration at 1 h ([2]; male, C57BL/6, mouse, plasma, ip, 20 mg/kg, mice, 20 mg/kg intraperitoneal, 1 hour, read-out: Plasma Concentration): 1250 nM
- concentration at 2 h ([2]; male, C57BL/6, mouse, plasma, ip, 20 mg/kg, mice, 20 mg/kg intraperitoneal, 2 hour, read-out: Plasma Concentration): 890 nM
- concentration at 8 h ([2]; male, C57BL/6, mouse, plasma, ip, 20 mg/kg, mice, 20 mg/kg intraperitoneal, 8 hour, read-out: Plasma Concentration): 50 nM
- Brain to Plasma Ratio [2, 5]: 1.98 and 1.64
- Plasma Concentration [2, 5]: 2050 nM and 2210 nM
- concentration at 0.25 h ([2]; mice, 20 mg/kg intraperitoneal, 0.25 hour, 20 mg/kg, read-out: Brain Concentration): 4060 nM and 3630 nM
- Brain to Plasma Ratio [2, 6]: 1.96 and 1.83
- Plasma Concentration [2, 6]: 1040 nM and 1170 nM
- concentration at 0.25 h ([2]; mice, 20 mg/kg intraperitoneal, 1 hour, 20 mg/kg, read-out: Brain Concentration): 2040 nM and 2140 nM
- Plasma Concentration ([2]; mice, 20 mg/kg intraperitoneal, 2 hour, 20 mg/kg): 920 nM and 960 nM
- concentration at 0.25 h ([2]; mice, 20 mg/kg intraperitoneal, 2 hour, 20 mg/kg, read-out: Brain Concentration): 660 nM and 690 nM
- Brain to Plasma Ratio [2, 7]: 0.90 and 0.72
- Plasma Concentration [2, 7]: 40 nM
- concentration at 0.25 h ([2]; mice, 20 mg/kg intraperitoneal, 8 hour, 20 mg/kg, read-out: Brain Concentration): 40 nM and 30 nM
- half-life ([2]; mouse, ip, plasma, male C57BL/6 mice, 20 mg/kg intraperitoneal): 1.57 h
- activity at GluA1-4 AMPA receptors [3]: virtually no activity
Compound: COc1ccc(OCC(c2ccc(OC)cc2)N2Cc3ccccc3C2=O)cc1 (racemic) [EU1180-438, 2-(2-(4-methoxyphenoxy)-1-(4-methoxyphenyl)ethyl)isoindolin-1-one]
- effect on glycine-activated responses from native GluN1/GluN3A receptors [4]: strong inhibition; also recorded: inhibited significantly
